# From PMC5479848, “Drug-Repositioning Screening for Keap1-Nrf2 Binding Inhibitors using Fluorescence Correlation Spectroscopy” (Scientific Reports, 2017)
# Experiments:
# Keap1 = biological target: T1, Keap1 (Homo sapiens, UniProt Q14145); test: FCS displacement of TAMRA-Nrf2 ETGE peptide from purified GST-Keap1-DGR; supported by co-IP; type: binding
# T1 construct: GST-Keap1-DGR, residues 315–598 (DGR domain)
# [1] = biological target: Nrf2 9mer peptide, FITC-labeled (Homo sapiens) (UniProt Q16236); test: FP; settings: cited from earlier work
# [2] = biological target: Nrf2 8mer peptide (Homo sapiens); test: SPR; settings: cited from earlier work
# T1 sequence (Q14145 315-598): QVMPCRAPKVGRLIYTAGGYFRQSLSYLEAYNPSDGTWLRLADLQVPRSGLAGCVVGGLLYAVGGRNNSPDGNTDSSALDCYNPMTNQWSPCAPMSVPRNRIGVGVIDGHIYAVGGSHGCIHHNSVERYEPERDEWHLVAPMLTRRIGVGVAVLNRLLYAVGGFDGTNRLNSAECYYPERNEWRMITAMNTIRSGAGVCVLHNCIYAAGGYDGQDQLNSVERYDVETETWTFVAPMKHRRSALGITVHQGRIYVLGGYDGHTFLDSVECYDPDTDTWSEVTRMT
# Sequence of Keap1 (from UniProt Q14145) (Q14145 whole entry): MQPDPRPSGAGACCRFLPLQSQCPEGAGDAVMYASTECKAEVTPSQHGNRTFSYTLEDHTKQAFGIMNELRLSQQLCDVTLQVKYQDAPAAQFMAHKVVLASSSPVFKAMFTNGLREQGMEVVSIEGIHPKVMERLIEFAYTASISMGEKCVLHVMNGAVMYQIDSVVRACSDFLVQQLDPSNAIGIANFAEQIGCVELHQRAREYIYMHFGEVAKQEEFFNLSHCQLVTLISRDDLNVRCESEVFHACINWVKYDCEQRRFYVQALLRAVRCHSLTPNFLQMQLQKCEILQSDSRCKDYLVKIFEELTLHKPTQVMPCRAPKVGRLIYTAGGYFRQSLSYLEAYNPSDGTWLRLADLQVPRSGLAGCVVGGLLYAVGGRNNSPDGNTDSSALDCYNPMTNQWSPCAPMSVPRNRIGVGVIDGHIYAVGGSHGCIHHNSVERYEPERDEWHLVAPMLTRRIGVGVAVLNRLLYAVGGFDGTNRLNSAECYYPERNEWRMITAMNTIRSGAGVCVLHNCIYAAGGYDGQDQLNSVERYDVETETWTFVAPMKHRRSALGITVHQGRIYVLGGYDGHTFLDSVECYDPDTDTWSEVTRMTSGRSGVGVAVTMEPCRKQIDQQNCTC
# Sequence of Nrf2 9mer peptide, FITC-labeled (Homo sapiens) (Q16236 whole entry): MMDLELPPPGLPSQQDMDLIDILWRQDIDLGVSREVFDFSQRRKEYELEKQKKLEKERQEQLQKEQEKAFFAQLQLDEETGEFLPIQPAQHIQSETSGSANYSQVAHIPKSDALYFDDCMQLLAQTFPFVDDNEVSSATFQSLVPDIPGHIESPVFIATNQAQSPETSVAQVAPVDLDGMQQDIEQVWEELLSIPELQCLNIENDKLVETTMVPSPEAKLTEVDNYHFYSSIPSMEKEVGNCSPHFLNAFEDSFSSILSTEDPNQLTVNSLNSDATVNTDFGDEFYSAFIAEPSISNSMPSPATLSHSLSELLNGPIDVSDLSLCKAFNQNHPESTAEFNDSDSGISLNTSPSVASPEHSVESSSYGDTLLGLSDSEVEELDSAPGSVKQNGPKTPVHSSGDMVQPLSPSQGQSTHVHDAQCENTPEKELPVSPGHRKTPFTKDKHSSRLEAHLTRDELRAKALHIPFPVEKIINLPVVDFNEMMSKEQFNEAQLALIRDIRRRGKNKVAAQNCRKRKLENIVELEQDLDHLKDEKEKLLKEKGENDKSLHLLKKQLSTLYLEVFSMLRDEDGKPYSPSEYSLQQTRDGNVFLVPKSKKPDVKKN
Compound,IC50 (Keap1) [µM],Kd [1] [µM],Kd [2] [µM]
"O=C1C=Cc2cc(Br)ccc2C1=O [bonaphton, 6-bromo-1,2-naphthoquinone]",37.9,,
chlorophyllin sodium copper salt,35.7,,
Keap1 (from UniProt Q14145),,0.0651,> 1
